How the values were obtained:
[1] = system: autoimmune multiple sclerosis (PLP139-151 immunized mice); assay: Experimental autoimmune multiple sclerosis; assay type: in vivo; settings: SJL/J mice, 5 and 30 mg/kg/d intragastric, 30 days
[2] = system: experimental rheumatoid arthritis (bovine collagen type II immunized mice); assay: Experimental rheumatoid arthritis; assay type: in vivo; settings: DBA/1JLacJ mice, 5 and 30 mg/kg/d intragastric, 30 days
[3] = system: peripheral blood lymphocyte; assay: Effects on peripheral blood lymphocyte in mice; assay type: in vivo, Balb/c mice; settings: intragastric; for toxicity: dose up to 30 mg/kg/d; for toxicity / behavior and weight of mice, pre- versus post-administration: four days; for numbers of peripheral blood lymphocyte reduced compared to pre-administration: once a day for continuous four days
Method: 3. Effects of the Compounds in Example-21 and Example-22 on Peripheral Blood Lymphocyte in Mice
3.1 Experimental Materials:
1) 15% EDTA, PBS, EP tubes, 15 ml centrifuge tube, capillary tube, pipette tip were all purchased from Shanghai biological technology co., Ltd. Hemocyte analysis reagents were purchased from Shanghai Sysmex Company.
2) 35 Balb/c mice (female, 20-22 g), supplied by laboratory animal center of Jilin University.
3) Automated Hematology Analyzer (pocH-100 iV Diff) was purchased from Sysmex Company, Kobe, Japan.
1) The stock solutions of the compounds obtained in Example-21 and Example-22 were prepared with normal saline, and the concentrations are 2 mg/ml and 20 mg/ml, respectively.
2) The mice were divided into […], i.e., control group, low-dose experimental group, and high-dose experimental group. They were weighed and labeled well.
3) Before administration, supraorbital venous blood was collected with 20 μl/mouse which was added to anticoagulant tube containing EDTA, and nosed thoroughly. The numbers of lymphocytes were analyzed by pocH-100.
4) The control group was given normal saline: low-dose experimental groups were given the compounds obtained in Example-21 and Example-22 (5 mg/kg/d), high-dose experimental groups were given the compounds obtained in Example-21 and Example-22 (30 mg/kg/d), with liquid amount of 500 μl/mouse, by intragastric administration. Administration was performed for continuous four days, once a day. After 3.5 hours of the first and fourth administration, blood was collected respectively, and changes in the numbers of lymphocytes were analyzed by pocH-100.

[4] = target: T1, S1P1 (Homo sapiens (Human), UniProt P21453); assay: S1P1 GTPγS binding assay; assay type: biochemical; settings: [35S]-GTPγS, membranes with high-expressed S1P1 (CHO-S1P1)
Method: 1. S1P1GTPγS Binding Assay
2) T-75 cell culture plate; 150 mm cell culture dish
3) DMEM cell culture fluid; 10% (v/v) fetal bovine serum; 100 U/ml penicillin-100 μg/ml streptomycin; 2 mM […], 1 mg/ml G-418
4) Cell Lysis Buffer: HEPES 20 mM (pH 7.4), EDTA 10 mM
5) Stock solution: HEPES 20 mM, EDTA 0.1 mM
6) Binding Buffer; HEPES 20 mM (pH 7.4), NaCl 100 mM, MgCl2 5 mM, GDP 1 μM, BSA 0.1% (w/v), DMSO 2.5% (v/v),
7) Washing solution: NaH2PO4 10 mM (pH 7.4)
The test compounds were dissolved in DMSO and prepared as a concentration of 20 mM.
The concentrations of the compounds were detected ranging from 0.3 nM to 20 μM.
Control group: […] SIP and SEW2871 were used as positive control and were purchased from Tocris company, and the binding buffet was as negative control.
Test method: wetting membranes by saponin solution, and preparing [^35S]-GTPγS in binding solution (4×). The test compound was prepared as 4× of the final concentration which was then performed serial 3× dilution in 100% DMSO. Membranes with high-expressed S1P1 were collected in 5 ml binding buffer, and 50 μL was added to 96-well (containing 5 μg membrane protein with high-expressed S1P1). 25 μL, test compound was added in each well. The compound was incubated with the membranes for 30 min at room temperature, then 25 μL [^35S]-GTPγS was added, and the experiment was initiated. The 96-well detection plate was incubated for 1 hour at room temperature, filtered by filtermat B, and washed with washing solution for three times. After the plate was dried for 1 h at 50° C., 8 ml scintillator solution was added and counted using scintillation counter.
Result Analysis and Determination of 50% Inhibitory Concentration (IC50):
The IC50 value was calculated by using (Prism 4) software, and 50% inhibitory concentrations were obtained.

[5] = system: peripheral blood lymphocyte; settings: general statement for FTY720; cited from earlier work
[6] = target: T1, S1P1; assay: S1P1 β-arrestin assay (PathHunter CHO-K1 EDG1); assay type: cell-based; settings: CHO-EDG-1 cells
Method: 2.1 Experimental Materials: Path hunter express CHO-K1 EDG1 β-arrestin GPCR Assay was purchased from DiscoveRx, containing CHO-EDG-1 cells, buffers, substrate-1, substrate-2, cell culture fluid, 96-well cell culture plate.
1) The test compounds were dissolved in DMSO and prepared as a concentration of 20 mM.
2) The concentrations of the test compounds were detected ranging from […] to 20 μM.
4) Assay procedures: OCC culture solution was preheated in water tank at 37° C. Cells were taken out from liquor nitrogen tank, left on the dry-ice, and dissolved in water tank at 37° C. 0.5 ml OCC culture solution was added and blended slowly. The cells were diluted in 11.5 mL OCC culture solution, and 100 μL cell suspension (containing 8333 cells) was added to each well of the 96-well plate. The 96-well plate was incubated for 8 hours under 5% CO2 at 37° C., and 10 μL test compound dissolved in DMSO was added in; 10 μL DMSO was used as negative control. After the plate was incubated for 90 min at 37° C., 55 μL detection solution was added to each well. Then the results were read out by EnVision after the cell plate was incubated for 90 min at room temperature.
The EC50 Value was Calculated by Using Prism 4 Software

T1 sequence (P21453 whole entry): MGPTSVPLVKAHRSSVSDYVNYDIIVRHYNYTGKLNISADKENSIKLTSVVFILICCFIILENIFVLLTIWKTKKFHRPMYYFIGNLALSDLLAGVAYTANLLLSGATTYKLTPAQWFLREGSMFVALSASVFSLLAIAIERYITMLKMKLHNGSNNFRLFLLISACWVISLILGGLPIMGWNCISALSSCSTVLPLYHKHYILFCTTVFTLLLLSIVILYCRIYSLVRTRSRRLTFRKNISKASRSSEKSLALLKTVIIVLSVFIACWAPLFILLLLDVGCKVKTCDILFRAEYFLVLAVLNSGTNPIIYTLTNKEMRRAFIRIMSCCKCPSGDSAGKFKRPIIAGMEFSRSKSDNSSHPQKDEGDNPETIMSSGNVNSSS

In the case of “2-(7-benzylamino-5,6,7,8-tetrahydro-7-naphthalenemethanol)-5-(3-methyl-4-isopropoxy)-1,3,4-oxdiazole [Example 21]”, the “effect on induction and development of autoimmune multiple sclerosis” value (“effect … of autoimmune multiple sclerosis” below) [1] is reported as “obviously inhibiting”, the “effect … of autoimmune multiple sclerosis” value ([1]; listed as Example-21) is reported as “remarkable inhibitory effects” and the “effect on induction and development of experimental rheumatoid arthritis” value (shortened to “effect … of experimental rheumatoid arthritis”) [2] is reported as “obviously inhibiting”. The “effect … of experimental rheumatoid arthritis” value ([2]; listed as Example-21) was “remarkable inhibitory effects”, the toxicity [3] was “no toxicity effects” and the “behavior and weight of mice, pre- versus post-administration” value [3] was “no differences”. The “numbers of peripheral blood lymphocyte reduced compared to pre-administration” value [3] was 92% and the IC50 [4] was 179 nM.
In the case of `CCCCCCCCc1ccc(CCC(N)(CO)CO)cc1` [FTY720], the “number of peripheral blood lymphocytes decreased” value [5] is given as 70-80%.
In the case of “2-(7-amino-5,6,7,8-tetrahydro-7-naphthalenemethanol)-5-(3-methyl-4-isopropoxy)-1,3,4-oxdiazole [Example 22]”, the “effect … of autoimmune multiple sclerosis” value [1] is reported as “obviously inhibiting”, the “effect … of autoimmune multiple sclerosis” value ([1]; listed as Example-22) is reported as “remarkable inhibitory effects” and the “effect … of experimental rheumatoid arthritis” value [2] is reported as “obviously inhibiting”. For the same molecule, the “effect … of experimental rheumatoid arthritis” value ([2]; listed as Example-22) was “remarkable inhibitory effects”, the toxicity [3] was “no toxicity effects” and the “behavior and weight of mice, pre- versus post-administration” value [3] was “no differences”. For the same molecule, the “numbers of peripheral blood lymphocyte reduced compared to pre-administration” value [3] was 78%, the EC50 [6] was 8 nM and the IC50 [4] was 3 nM.
